In patent US20230131402A1, “SPIRO-LACTAM NMDA RECEPTOR MODULATORS AND USES THEREOF” (Aptinyx Inc., priority 2016, published 2023):
Read-outs that look alike come from different tables or passages of the source.

Legend:
[1] = IV pharmacokinetics; type: in vivo, Sprague Dawley rats; settings: rat, 2 mg/kg, normal saline (compounds marked * in 1% NMP and 99% normal saline)
Description: The table below summarizes the results of the IV pharmacokinetics.

[2] = Sprague Dawley, rat, in vivo, po, 10 mg/kg
Procedure: (§6) Plasma, brain, and CSF samples were analyzed at various time points over a 24 hour period.

[3] = in vivo; settings: Sprague Dawley, rat, po, 10 mg/kg
Procedure: as §6

[4] = Oral pharmacokinetics (plasma, brain, CSF); settings: rat, per os, 10 mg/kg
Procedure: as §6

[5] = target: T1, NMDAR2C (Homo sapiens, UniProt Q14957); test: [3H]MK-801 binding, NMDAR2C expressing HEK cell membranes; type: biochemical; settings: 50 μM glutamate
T1 construct: expressed in transfected cells; host or cells: HEK cells (membrane extract)
Procedure: (§1) Assays were conducted as described by Moskal et al., “GLYX-13: a monoclonal antibody-derived peptide that acts as an N-methyl-D-aspartate receptor modulator,” Neuropharmacology, 49, 1077-87, 2005. These studies were designed to determine if the test compounds act to facilitate NMDAR activation in NMDAR2A, NMDAR2B, NMDAR2C or NMDAR2D expressing HEK cell membranes as measured by increases in [^3H]MK-801 binding.
(§2) In the assay, 300 μg of NMDAR expressing HEK cell membrane extract protein was preincubated for 15 minutes at 25° C. in the presence of saturating concentrations of glutamate (50 μM) and varying concentrations of test compound (1×10^−15M−1×10^−7M), or 1 mM glycine. Following the addition of 0.3 μCi of [^3H]MK-801 (22.5 Ci/mmol), reactions were again incubated for 15 minutes at 25° C. (nonequilibrium conditions). Bound and free [^3H]MK-801 were separated via rapid filtration using a Brandel apparatus.
(§3) In analyzing the data, the DPM (disintegrations per minute) of [^3H]MK-801 remaining on the filter were measured for each concentration of test compound or for 1 mM glycine. The DPM values for each concentration of a ligand (N=2) were averaged. The baseline value was determined from the best fit curve of the DPM values modeled using the GraphPad program and the log(agonist) vs. response(three parameters) algorithm was then subtracted from all points in the dataset. The % maximal [^3H]MK-801 binding was then calculated relative to that of 1 mM glycine: all baseline subtracted DPM values were divided by the average value for 1 mM glycine. The EC50 and % maximal activity were then obtained from the best fit curve of the % maximal [^3H]MK-801 binding data modelled using the GraphPad program and the log(agonist) vs. response(three parameters) algorithm.
(§4) The tables below summarize the results for the wild type NMDAR agonists NMDAR2A, NMDAR2B, NMDAR2C, and NMDAR2D, and whether the compound is not an agonist (−), is an agonist (+), or is a strong agonist (++), where column A is based on the % maximal [^3H]MK-801 binding relative to 1 mM glycine (−=0; <100%=+; and >100%=++); and column B is based on log EC50 values (0=−; ≥1×10^−9M (e.g., −8)=+; and <1×10^−9M (e.g., −10)=++).

[6] = tested on: positive (hedonic) 50-kHz ultrasonic vocalizations (USVs); test: Positive emotional learning (PEL) test; type: in vivo, rats; settings: rat, PO, dose .001-1 mg/kg, 1 h after administration
Procedure: Experiments were conducted as described in Burgdorf et al., “The effect of selective breeding for differential rates of 50-kHz ultrasonic vocalizations on emotional behavior in rats,” Devel. Psychobiol., 51:34-46 (2009). Rat 50-kHz ultrasonic vocalization (hedonic USVs) is a validated model for the study of positive affective state and is best elicited by rough-and-tumble play.
The PEL assay measures the acquisition of positive (hedonic) 50-kHz ultrasonic vocalizations (USVs) to a social stimulus, heterospecific rough and tumble play stimulation. Heterospecific rough-and-tumble play stimulation was administered by the experimenter's right hand. One hour after administration of test compound or vehicle negative control (0.5% sodium carboxymethyl cellulose in 0.9% sterile saline vehicle), animals received 3 min of heterospecific rough-and-tumble play that consisted of alternating 15 sec blocks of heterospecific play and 15 sec of no-stimulation. High frequency ultrasonic vocalizations (USVs) were recorded and analyzed by sonogram with Avasoft SASlab Pro (Germany) as previously described by Burgdorf et al., “Positive emotional learning is regulated in the medial prefrontal cortex by GluN2B-containing NMDA receptors,” Neuroscience, 192:515-523 (2011). Frequency modulated 50-kHz US V s that occurred during each of the no-stimulation periods were quantified to measure PEL. Animals were not habituated to play stimulation before testing. Positive emotional learning was measured during the conditioned stimulus (CS) trials preceding the tickle unconditioned stimulus (UCS) trials. Animals received 15 second trials consisting of 6 CS and 6 UCS trials each (3 min total).
The table below summarizes the findings. As each experiment includes its own vehicle group, an example (typical) vehicle score is shown. Max effect (mean number of 50 kHz USVs per 15 seconds) is reported as ∧: <6.0; *: 6.0-7.6; **: 7.7-10; ***: 10.1-20.

[7] = target: T2, NMDAR2B (Homo sapiens, UniProt Q13224); test: [3H]MK-801 binding, NMDAR2B expressing HEK cell membranes; type: biochemical; settings: 50 μM glutamate
T2 construct: expressed in transfected cells; host or cells: HEK cells (membrane extract)
In short: (§5)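 HEK membranes expressing NMDAR2A, 2B, 2C or 2D (300 μg protein) were preincubated 15 min at 25 °C with 50 μM glutamate and compound (1×10^−15–1×10^−7 M), then 15 min with 0.3 μCi [3H]MK-801 (nonequilibrium) before filtration. Baseline-subtracted binding was normalized to 1 mM glycine, yielding EC50 and % maximal activity.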

[8] = target: T3, NMDAR2A (Homo sapiens, UniProt Q12879); test: [3H]MK-801 binding, NMDAR2A expressing HEK cell membranes; type: biochemical; settings: 50 μM glutamate
T3 construct: expressed in transfected cells; host or cells: HEK cells (membrane extract)
In short: as §5

[9] = target: T4, NMDAR2D (Homo sapiens, UniProt O15399); test: [3H]MK-801 binding, NMDAR2D expressing HEK cell membranes; type: biochemical; settings: 50 μM glutamate
T4 construct: expressed in transfected cells; host or cells: HEK cells (membrane extract)
Procedure: as §1, §2, §3, §4

[10] = normal saline (compounds marked * in 1% NMP and 99% normal saline)

T1 sequence (Q14957 20-1233, species assumed, other chains not shown): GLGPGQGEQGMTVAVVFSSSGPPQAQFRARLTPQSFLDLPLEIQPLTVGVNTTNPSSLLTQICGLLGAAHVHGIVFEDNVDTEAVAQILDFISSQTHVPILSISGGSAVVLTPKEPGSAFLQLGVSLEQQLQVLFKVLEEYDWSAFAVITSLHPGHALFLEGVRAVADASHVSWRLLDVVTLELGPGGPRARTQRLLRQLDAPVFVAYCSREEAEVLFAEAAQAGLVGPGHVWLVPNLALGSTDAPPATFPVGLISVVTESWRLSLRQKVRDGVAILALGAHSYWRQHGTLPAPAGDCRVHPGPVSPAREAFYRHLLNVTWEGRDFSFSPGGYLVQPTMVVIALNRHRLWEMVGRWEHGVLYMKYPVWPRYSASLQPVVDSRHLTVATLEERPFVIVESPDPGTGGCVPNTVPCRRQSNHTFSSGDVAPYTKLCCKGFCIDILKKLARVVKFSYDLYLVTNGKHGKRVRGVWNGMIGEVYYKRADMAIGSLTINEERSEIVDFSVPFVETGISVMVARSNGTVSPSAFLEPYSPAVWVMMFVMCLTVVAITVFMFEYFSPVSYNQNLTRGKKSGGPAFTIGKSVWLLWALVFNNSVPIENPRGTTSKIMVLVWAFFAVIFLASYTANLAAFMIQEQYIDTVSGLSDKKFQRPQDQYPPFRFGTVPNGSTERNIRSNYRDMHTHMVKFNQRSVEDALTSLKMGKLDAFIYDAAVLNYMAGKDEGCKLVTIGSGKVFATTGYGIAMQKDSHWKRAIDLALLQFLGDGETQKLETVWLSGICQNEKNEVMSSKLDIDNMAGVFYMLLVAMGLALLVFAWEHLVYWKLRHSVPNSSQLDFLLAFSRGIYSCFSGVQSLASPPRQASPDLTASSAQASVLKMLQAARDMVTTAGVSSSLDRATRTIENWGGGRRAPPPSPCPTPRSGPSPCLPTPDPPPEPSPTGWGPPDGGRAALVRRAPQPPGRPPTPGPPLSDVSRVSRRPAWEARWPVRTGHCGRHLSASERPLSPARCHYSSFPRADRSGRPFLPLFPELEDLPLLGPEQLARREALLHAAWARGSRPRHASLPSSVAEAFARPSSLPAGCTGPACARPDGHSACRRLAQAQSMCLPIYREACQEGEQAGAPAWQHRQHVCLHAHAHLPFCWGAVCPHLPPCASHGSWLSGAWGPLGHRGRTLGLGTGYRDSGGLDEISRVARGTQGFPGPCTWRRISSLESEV
T2 sequence (Q13224 27-1484, species assumed, other chains not shown): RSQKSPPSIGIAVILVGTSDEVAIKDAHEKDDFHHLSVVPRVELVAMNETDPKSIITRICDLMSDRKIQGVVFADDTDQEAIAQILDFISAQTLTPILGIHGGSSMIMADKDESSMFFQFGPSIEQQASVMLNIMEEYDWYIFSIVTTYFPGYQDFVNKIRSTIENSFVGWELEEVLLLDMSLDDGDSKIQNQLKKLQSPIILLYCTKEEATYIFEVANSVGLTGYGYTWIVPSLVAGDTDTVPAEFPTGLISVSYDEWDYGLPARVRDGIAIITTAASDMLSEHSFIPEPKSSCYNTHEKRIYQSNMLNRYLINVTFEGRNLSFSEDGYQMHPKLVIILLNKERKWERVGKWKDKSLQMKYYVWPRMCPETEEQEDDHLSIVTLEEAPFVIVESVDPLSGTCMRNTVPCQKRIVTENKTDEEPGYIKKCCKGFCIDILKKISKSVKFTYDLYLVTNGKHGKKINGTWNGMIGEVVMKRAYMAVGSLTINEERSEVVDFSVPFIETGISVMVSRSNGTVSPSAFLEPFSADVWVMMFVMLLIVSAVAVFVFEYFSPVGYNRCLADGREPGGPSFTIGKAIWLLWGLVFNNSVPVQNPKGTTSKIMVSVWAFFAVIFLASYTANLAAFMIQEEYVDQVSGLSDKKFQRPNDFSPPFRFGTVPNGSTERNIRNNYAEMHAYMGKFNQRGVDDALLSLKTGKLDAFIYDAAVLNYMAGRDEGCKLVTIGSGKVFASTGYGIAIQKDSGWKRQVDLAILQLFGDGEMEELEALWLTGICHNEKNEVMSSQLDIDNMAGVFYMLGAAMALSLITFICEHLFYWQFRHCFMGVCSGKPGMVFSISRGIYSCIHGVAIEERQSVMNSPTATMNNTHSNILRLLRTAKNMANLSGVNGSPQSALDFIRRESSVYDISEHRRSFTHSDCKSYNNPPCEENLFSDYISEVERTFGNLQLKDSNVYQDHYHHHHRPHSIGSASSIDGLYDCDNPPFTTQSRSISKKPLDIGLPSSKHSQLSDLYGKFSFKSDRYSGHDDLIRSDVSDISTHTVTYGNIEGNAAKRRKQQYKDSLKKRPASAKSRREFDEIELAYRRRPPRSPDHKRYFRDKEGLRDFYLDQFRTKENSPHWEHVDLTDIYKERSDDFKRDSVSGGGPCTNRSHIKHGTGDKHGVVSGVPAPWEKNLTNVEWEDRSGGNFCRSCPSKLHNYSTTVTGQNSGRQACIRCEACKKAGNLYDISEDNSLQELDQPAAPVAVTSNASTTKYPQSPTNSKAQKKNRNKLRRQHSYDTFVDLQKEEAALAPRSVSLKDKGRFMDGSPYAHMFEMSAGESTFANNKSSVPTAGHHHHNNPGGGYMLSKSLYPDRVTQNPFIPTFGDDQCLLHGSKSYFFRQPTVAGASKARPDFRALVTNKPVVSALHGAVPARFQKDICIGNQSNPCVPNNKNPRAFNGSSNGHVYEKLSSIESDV
T4 sequence (O15399 28-1336, species assumed, other chains not shown): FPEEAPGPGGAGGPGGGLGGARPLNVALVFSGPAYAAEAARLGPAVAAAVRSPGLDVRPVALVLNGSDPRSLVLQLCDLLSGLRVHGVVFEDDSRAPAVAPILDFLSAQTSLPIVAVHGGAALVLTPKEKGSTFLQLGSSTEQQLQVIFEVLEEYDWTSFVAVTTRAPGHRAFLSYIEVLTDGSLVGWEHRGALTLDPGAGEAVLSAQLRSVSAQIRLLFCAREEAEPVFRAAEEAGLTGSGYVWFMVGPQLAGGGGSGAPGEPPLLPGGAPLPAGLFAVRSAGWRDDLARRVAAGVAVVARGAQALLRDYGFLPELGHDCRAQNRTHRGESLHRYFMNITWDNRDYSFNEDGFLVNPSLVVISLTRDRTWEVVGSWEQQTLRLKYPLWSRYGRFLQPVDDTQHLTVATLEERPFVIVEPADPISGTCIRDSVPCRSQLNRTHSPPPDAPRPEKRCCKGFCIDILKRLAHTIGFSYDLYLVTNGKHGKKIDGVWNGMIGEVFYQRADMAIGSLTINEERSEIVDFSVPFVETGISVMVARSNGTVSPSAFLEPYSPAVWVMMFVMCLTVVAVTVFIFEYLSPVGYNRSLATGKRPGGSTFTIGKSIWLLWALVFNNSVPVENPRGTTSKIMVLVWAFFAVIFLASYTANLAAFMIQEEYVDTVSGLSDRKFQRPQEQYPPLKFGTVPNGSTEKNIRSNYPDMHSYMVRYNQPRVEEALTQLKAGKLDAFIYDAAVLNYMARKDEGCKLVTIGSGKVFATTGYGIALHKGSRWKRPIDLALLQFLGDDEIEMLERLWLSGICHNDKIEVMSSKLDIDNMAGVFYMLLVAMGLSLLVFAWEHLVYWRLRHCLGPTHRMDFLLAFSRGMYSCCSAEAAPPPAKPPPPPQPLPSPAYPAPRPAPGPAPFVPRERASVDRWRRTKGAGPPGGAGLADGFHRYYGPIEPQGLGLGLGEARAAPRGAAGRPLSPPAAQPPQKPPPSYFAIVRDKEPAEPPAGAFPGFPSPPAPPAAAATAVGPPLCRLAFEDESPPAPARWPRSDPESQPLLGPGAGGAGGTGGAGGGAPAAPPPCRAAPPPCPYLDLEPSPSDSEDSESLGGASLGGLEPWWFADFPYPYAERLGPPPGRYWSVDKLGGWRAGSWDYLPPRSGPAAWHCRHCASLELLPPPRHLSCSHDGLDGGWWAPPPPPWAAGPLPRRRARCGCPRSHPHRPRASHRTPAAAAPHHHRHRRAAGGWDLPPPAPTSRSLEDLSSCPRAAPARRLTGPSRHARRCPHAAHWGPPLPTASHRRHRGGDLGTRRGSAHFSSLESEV

Compound: C[C@@H](O)[C@H](N)C(=O)N1CCN(C)CC12CNC2=O (single isomer, unassigned) [EJ-2, 5-(L-Threonyl)-8-Methyl-2,5,8-Triazaspiro[3.5]Nonan-1-One]
- AUClast [1]: 1737 ng·h/mL
- C0 [1]: 3415.56 ng/mL
- Cl [1]: 18.95 mL/min/kg
- T1/2 [1]: 1.59 h
- Vss [1]: 1.35 L/kg
- % F [2]: 9%
- AUClast [2]: 811.97 ng·h/mL
- Cmax [2]: 201.12 ng/mL
- Tmax [2]: 1.33 h

Compound: C[C@@H](O)[C@H](N)C(=O)N1CCN(C)CC12CNC2=O (single isomer, unassigned) [EJ-1, 5-(L-Threonyl)-8-Methyl-2,5,8-Triazaspiro[3.5]Nonan-1-One]
- AUC(0-t) ([1]; Sprague Dawley, in vivo, iv): 3160 ng·h/mL
- clearance ([1]; Sprague Dawley, in vivo, iv): 10.5 mL/min/kg
- half-life ([1]; Sprague Dawley, in vivo, iv): 78 min
- C0 ([1]; Sprague Dawley, in vivo, iv, read-out: C0): 4030 ng/mL
- Vss [1]: 0.62 L/kg
- % F [2]: 4%
- AUC(0-t) ([3]; AUClast): 568 ng·h/mL
- Cmax ([3]; Cmax): 186 ng/mL
- Tmax ([3]; Tmax): 45 min

Compound: O=C1NCC12CNCCN2Cc1ccccc1 (single isomer, unassigned) [ED-2, 5-Benzyl-2,5,8-Triazaspiro[3.5]Nonan-1-One]
- % F [4]: 54%
- CSF Cmax ([4]; CSF): 178.3 ng/mL
- Brain Cmax ([4]; brain): 478.5 ng/mL
- AUClast [4, 10]: 2178.53 ng·h/mL
- Tmax [4, 10]: 15 min
- Cmax ([4]; plasma, normal saline (compounds marked * in 1% NMP and 99% normal saline)): 1563.1 ng/mL
- AUClast [1]: 806.5 ng·h/mL
- C0 [1]: 1793.2 ng/mL
- Cl [1]: 40.6 mL/min/kg
- T1/2 [1]: 0.54 h
- Vss [1]: 1.45 L/kg
- NMDAR2C A: % maximal [3H]MK-801 binding relative to 1 mM glycine [5]: + (<100%=+)
- EC50 ([5]; read-out: NMDAR2C B: log EC50 (converted)): < 1 nM
- Max Effect (mean number of 50 kHz USVs per 15 seconds) [6]: *** (***: 10.1-20)
- NMDAR2B A: % maximal [3H]MK-801 binding relative to 1 mM glycine [7]: + (<100%=+)
- EC50 ([7]; read-out: NMDAR2B B: log EC50 (converted)): < 1 nM
- NMDAR2A A: % maximal [3H]MK-801 binding relative to 1 mM glycine [8]: − (−=0)
- NMDAR2D A: % maximal [3H]MK-801 binding relative to 1 mM glycine [9]: + (<100%=+)
- EC50 ([9]; read-out: NMDAR2D B: log EC50 (converted)): < 1 nM
